In patent US9585380B2, “SSAT mRNA translation repression and activation” (TEMPLE UNIVERSITY—Of The Commonwealth System of Higher …, priority 2011, dated 2017):
Where a name gives a salt, the structure may show the parent alone.

Tested on: SSAT translation
Test: Drug screening with mutant 6 SSAT-luciferase reporter construct in transfected HEK 293T cells
Format: cell-based, human
Conditions: for inhibition at 10 µM / activation at 10 µM: Homo sapiens; for inhibition at 10 µM: 10 μM test compound, HEK 293T cells transfected with mutant 6 construct, luciferase signal twelve hours after treatment; for activation at 10 µM: 12 h
Method: The mutant 6 chimeric construct of Example 4 (A424C; A426C; FIG. 18G) cloned into pLEX MCS plasmid was utilized in drug screening as follows. HEK 293T cells (ATCC) were grown in DMEM supplemented with 10% fetal bovine serum and antibiotics. The HEK 293T cells were transfected with the mutant 6/pLEX MCS plasmid using HTS-Jetpei transfection reagent (Polyplus Transfection, Illkirch, France). Transfected HEK293T cells were incubated overnight at 37° C. After 24 hours, cells transfected cells in 96-well plates used for screening were treated with 10 μM of test compound from a compound library in DMSO. Untreated cells were used as the negative control, and cells treated with 10 μM DENSPM comprised a positive control. The luciferase signaling in each plate was independently analyzed using a Glomax Luminometer (Promega Corp.) by comparing the signals against the controls twelve hours after treatment.
The procedure of Example 6 was followed, screening for compounds that increase SSAT translation. The agents listed in Table 11 were identified as increasing SSAT translation by at least 35% over basal SSAT translation.

[1] = procedure of Example 6 (10 μM, mutant 6 construct, HEK 293T), increase over basal SSAT translation

| SMILES | inhibition at 10 µM | activation at 10 µM [1] | further results |
| --- | --- | --- | --- |
| CC(C)(C)c1ccc(C(O)CCCN2CCC(C(O)(c3ccccc3)c3ccccc3)CC2)cc1 (racemic) [Terfenadine, (RS)-1-(4-tert-butylphenyl)-4-{4-[hydroxy(diphenyl)methyl]piperidin-1-yl}-butan-1-ol] | 100% |  |  |
| CCCCCCCCN[C@H](C)[C@@H](O)c1ccc(SC(C)C)cc1 (relative stereo) [Suloctidil, (R*,S*)-4-((1-methylethyl)thio)-alpha-(1-(octylamino)ethyl)benzene-methanol] | 99.9% |  |  |
| C[C@H]1OC(OC2[C@@H](O)C[C@H](OC3[C@@H](O)CC(O[C@H]4CC[C@@]5(C)[C@H](CC[C@@H]6[C@@H]5C[C@@H](O)[C@]5(C)[C@@H](C7=CC(=O)OC7)CC[C@]65O)C4)O[C@@H]3C)O[C@@H]2C)C[C@H](O)C1O (stereo in doubt) [Digoxin, 4-[(3S,5R,8R,9S,10S,12R,13S,14S)-3-[(2S,4S,5R,6R)-5-[(2S,4S,5R,6R)-5-[(2S,4S,5R,6R)-4,5-dihydroxy-6-methyl-oxan-2-yl]oxy-4-hydroxy-6-methyl-oxan-2-yl]oxy-4-hydroxy-6-methyl-oxan-2-yl]oxy-12,14-dihydroxy-10,13-dimethyl-1,2,3,4,5,6,7,8,9,11,12,15,16,17-tetradecahydrocyclopenta[a]phenanthren-17-yl]-5H-furan-2-one] | 93.9% |  |  |
| Nc1nc(NC2CC2)c2ncn([C@H]3C=C[C@@H](CO)C3)c2n1 [Abacavir Sulfate] |  | 36% |  |
| CCCCC(CC)CNC(=N)NC(=N)NCCCCCCNC(=N)NC(=N)NCC(CC)CCCC (stereo not drawn) [Alexidine dihydrochloride, 1,1′-Hexamethylene-bis[5-(2-ethylhexyl)biguanide] dihydrochloride] | 99.6% |  |  |
| Cc1c(O)c(=O)n(-c2ccccc2)n1C [Antipyrine, 4-hydroxy] |  |  | % Increase in SSAT Translation [1]: 41% |
| O=C1CCc2ccc(OCCCCN3CCN(c4cccc(Cl)c4Cl)CC3)cc2N1 [Aripiprazole, 7-{4-[4-(2,3-dichlorophenyl)piperazin-1-yl]butoxy}-3,4-dihydroquinolin-2(1H)-one] | 92.7% |  |  |
| COc1ccc(CCN2CCC(Nc3nc4ccccc4n3Cc3ccc(F)cc3)CC2)cc1 [Astemizole, 1-[(4-fluorophenyl)methyl]-N-[1-[2-(4-methoxyphenyl)ethyl]-4-piperidyl]benzoimidazol-2-amine] | 86.2% |  |  |
| CC=C(C)C(=O)O[C@H]1[C@H](OC(C)=O)[C@@]2(CO)C(CC1(C)C)C1=CCC3[C@@]4(C)CC[C@H](O[C@@H]5O[C@H](C(=O)O)[C@@H](O[C@@H]6O[C@H](CO)[C@@H](O)[C@H](O)[C@H]6O)[C@H](O)[C@H]5O[C@@H]5O[C@H](CO)[C@@H](O)[C@H](O)[C@H]5O)[C@](C)(CO)C4CC[C@@]3(C)[C@]1(C)C[C@H]2O (stereo partly drawn) [Beta-Escin, (3α,5β,14β,16α,21α,22α)-22-acetoxy-16,23,28-trihydroxy-1-{[(2Z)-2-methylbut-2-enoyl]oxy}olean-12-en-3-yl-α-D-gulopyranosyl-(1→2)-[a-L-mannopyranosyl-(1→4)]-β-D-allopyranosiduronic acid] | 88.7% |  |  |
| O=C1C=CC(=O)c2c1ccc1c2ccc2ccccc21 [Chrysene-1,4-quinone, chrysene-1,4-dione] | 97.3% |  |  |
| CC(=O)OCC(=O)[C@@]12N=C(C)O[C@@H]1C[C@H]1[C@@H]3CCC4=CC(=O)C=C[C@]4(C)[C@H]3[C@@H](O)C[C@@]12C [Deflazacort] |  | 37% |  |
| C[C@]12CC[C@H](O)C[C@H]1CC[C@@H]1[C@@H]2CC[C@]2(C)[C@@H](C3=CC(=O)OC3)CC[C@]12O [Digitoxigenin, 3-β,14-dihydroxy-5-β,14-β-card-20(22)-enolide] | 93.4% |  |  |
| CN(C)CCOC(C)(c1ccccc1)c1ccccn1 (stereo not drawn) [Doxylamine succinate] |  | 62% |  |
| C[C@]12CC[C@H]3C(=CCc4cc(O)ccc43)[C@@H]1CCC2=O [Equilin] |  | 36% |  |
| Nc1[nH]c(=O)ncc1F [Flucytosine] |  | 35% |  |
